This note sets out measurements from ChEMBL document CHEMBL1136851, “Identification of 4-hydroxyquinolines inhibitors of p300/CBP histone acetyltransferases” (Bioorg Med Chem Lett, 2009).

Each structure is given as a SMILES string. Calls of active or inactive are those of the source. No cut-off for these calls is given here.

Test [1] deals with U-937. Description: Inhibition of human histone acetyltransferase in U937 cell nuclear extracts at 50 uM. It is filed as cell-free.
Test [2] addresses CREB-binding protein (Homo sapiens) (UniProt Q92793). Description: Inhibition of human GST-fused histone acetyltransferase CBP in U937 cell nuclear extracts assessed as remaining enzyme activity at 50 uM. The test is classed as cell-free. The conditions noted are these: U-937.
Test [3] concerns the target Histone acetyltransferase KAT2A (Homo sapiens) (UniProt Q92830). Description: Inhibition of human histone acetyltransferase GCN5 in U937 cell nuclear extracts assessed as remaining enzyme activity at 50 uM. It is filed as cell-free. The conditions noted are these: U-937.
The target of test [4] is Histone acetyltransferase KAT2B (Homo sapiens) (UniProt Q92831). Description: Inhibition of human GST-fused histone acetyltransferase PCAF in U937 cell nuclear extracts assessed as remaining enzyme activity at 50 uM. It is filed as cell-free. The settings on record: U-937.
Sequence of Histone acetyltransferase KAT2B (Homo sapiens) (Q92831 whole entry, looked up, the tested form may be a part): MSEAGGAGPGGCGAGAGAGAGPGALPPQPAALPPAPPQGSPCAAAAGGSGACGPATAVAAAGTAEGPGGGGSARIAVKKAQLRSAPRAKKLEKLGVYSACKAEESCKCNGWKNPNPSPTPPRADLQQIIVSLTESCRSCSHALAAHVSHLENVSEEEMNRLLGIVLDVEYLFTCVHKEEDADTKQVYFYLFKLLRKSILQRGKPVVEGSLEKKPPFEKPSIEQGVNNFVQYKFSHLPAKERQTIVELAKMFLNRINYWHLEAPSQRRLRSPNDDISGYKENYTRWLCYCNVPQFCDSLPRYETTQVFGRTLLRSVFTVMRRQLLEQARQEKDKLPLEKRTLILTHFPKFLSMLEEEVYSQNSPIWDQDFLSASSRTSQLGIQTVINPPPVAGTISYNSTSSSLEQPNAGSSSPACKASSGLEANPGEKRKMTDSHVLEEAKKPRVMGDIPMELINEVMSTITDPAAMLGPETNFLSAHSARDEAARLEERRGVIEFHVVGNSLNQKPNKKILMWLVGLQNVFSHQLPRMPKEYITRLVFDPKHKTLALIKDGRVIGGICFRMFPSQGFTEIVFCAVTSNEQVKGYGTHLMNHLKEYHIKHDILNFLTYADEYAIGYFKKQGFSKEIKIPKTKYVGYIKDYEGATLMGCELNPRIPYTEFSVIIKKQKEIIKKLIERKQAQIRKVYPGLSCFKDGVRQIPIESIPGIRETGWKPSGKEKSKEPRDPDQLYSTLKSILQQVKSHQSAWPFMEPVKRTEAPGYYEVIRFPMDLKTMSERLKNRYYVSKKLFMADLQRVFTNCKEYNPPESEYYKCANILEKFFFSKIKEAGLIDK
The target of test [5] is Histone acetyltransferase p300 (Homo sapiens) (UniProt Q09472). Briefly: Inhibition of human immunoprecipitated histone acetyltransferase p300 in U937 cell nuclear extracts assessed as remaining enzyme activity at 50 uM. The test is classed as cell-free. The settings on record: U-937.
Sequence of Histone acetyltransferase p300 (Homo sapiens) (Q09472 whole entry): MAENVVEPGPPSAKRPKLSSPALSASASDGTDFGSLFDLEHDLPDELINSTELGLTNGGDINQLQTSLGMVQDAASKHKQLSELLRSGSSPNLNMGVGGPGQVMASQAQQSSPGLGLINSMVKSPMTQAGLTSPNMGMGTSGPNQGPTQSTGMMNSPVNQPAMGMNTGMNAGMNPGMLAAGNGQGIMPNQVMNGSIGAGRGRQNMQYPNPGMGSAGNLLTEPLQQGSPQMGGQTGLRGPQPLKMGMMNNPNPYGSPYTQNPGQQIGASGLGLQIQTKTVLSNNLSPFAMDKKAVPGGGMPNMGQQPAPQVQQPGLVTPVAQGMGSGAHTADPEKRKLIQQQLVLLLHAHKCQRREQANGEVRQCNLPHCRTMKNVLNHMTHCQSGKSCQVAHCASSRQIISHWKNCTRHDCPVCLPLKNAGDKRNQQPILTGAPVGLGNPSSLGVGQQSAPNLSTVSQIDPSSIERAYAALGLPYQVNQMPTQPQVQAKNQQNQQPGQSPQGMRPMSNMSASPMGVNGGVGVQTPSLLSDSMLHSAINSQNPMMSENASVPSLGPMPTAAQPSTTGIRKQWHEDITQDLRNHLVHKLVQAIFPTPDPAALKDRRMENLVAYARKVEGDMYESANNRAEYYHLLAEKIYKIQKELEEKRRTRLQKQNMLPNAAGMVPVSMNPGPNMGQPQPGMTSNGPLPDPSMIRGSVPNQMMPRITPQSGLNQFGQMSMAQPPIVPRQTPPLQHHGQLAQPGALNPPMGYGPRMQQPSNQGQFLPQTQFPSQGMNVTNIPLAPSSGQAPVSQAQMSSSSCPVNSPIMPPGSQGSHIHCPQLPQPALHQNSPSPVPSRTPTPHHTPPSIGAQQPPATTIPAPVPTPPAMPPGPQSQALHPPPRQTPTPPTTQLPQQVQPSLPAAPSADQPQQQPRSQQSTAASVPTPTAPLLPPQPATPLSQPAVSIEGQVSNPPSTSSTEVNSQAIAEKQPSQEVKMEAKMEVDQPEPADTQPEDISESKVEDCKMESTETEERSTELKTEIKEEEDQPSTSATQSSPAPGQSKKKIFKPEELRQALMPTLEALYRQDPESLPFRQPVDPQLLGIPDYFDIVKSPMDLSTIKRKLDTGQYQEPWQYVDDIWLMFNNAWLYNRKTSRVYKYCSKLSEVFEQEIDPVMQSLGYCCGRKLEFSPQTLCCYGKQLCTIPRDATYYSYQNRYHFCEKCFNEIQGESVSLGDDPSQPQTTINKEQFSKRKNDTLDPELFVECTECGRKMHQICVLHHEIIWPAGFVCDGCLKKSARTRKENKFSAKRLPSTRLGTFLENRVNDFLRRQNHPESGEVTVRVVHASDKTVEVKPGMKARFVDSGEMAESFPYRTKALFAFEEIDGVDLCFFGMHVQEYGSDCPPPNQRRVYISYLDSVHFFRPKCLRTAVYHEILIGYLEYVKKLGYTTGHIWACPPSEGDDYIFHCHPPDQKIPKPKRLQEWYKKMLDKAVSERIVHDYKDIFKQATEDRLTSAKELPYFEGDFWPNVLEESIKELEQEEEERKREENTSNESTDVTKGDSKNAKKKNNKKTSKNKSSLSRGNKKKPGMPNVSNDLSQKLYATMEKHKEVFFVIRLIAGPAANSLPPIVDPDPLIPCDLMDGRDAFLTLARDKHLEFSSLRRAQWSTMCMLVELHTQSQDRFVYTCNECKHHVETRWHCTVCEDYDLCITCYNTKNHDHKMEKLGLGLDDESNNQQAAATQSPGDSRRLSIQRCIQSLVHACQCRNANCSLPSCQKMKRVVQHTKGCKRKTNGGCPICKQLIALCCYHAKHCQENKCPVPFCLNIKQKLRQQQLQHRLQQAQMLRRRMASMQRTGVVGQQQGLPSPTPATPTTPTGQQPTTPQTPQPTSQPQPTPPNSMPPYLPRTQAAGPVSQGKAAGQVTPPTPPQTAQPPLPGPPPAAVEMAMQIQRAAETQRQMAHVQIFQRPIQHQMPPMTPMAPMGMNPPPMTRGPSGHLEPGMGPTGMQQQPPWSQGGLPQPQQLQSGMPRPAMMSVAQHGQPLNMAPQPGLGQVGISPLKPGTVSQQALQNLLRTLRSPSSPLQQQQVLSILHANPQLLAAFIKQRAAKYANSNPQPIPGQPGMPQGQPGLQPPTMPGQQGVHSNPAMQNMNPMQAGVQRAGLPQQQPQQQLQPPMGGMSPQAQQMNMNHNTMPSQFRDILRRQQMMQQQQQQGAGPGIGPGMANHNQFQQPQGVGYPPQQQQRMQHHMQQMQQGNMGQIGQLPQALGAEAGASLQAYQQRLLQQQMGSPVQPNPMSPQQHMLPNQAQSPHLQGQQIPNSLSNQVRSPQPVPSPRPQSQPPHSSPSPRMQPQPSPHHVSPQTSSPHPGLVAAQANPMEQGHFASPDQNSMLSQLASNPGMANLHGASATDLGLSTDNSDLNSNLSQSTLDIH
Test [6] concerns U-937. Briefly: Inhibition of SAHA-induced histone H3 acetylation in human U937 cells at 100 uM after 4 hrs by Western blot analysis. It is filed as functional, cell-based.
For test [7], the system named is U-937. Description: Inhibition of SAHA-induced alpha tubulin acetylation in human U937 cells at 100 uM after 4 hrs by Western blot analysis. It is filed as functional, cell-based.
Test [8] has as its system U-937. Description: Cell cycle arrest in human U937 cells assessed as accumulation at G1/S phase at 20 nM after 24 hrs. It is filed as functional, cell-based.
In test [9] the test system is U-937. Briefly: Cell cycle arrest in human U937 cells assessed as loss of accumulation at G2 phase at 20 nM after 24 hrs. The test is classed as functional, cell-based.
Test [10] relates to U-937. Briefly: Induction of cell differentiation in human U937 cells assessed as cytodifferentiation at 20 uM after 24 hrs by CD11c/PI method. The test is classed as functional, cell-based.
The subject of test [11] is U-937. Description: Induction of apoptosis in human U937 cells at 20 uM by annexin V/propidium iodide double staining. It is filed as functional, cell-based.
In test [12] the test system is U-937. Description: Induction of apoptosis in human U937 cells at 100 uM by annexin V/propidium iodide double staining. It is filed as functional, cell-based.

Sequence of Histone acetyltransferase KAT2A (Homo sapiens) (Q92830 2-837 limits assumed): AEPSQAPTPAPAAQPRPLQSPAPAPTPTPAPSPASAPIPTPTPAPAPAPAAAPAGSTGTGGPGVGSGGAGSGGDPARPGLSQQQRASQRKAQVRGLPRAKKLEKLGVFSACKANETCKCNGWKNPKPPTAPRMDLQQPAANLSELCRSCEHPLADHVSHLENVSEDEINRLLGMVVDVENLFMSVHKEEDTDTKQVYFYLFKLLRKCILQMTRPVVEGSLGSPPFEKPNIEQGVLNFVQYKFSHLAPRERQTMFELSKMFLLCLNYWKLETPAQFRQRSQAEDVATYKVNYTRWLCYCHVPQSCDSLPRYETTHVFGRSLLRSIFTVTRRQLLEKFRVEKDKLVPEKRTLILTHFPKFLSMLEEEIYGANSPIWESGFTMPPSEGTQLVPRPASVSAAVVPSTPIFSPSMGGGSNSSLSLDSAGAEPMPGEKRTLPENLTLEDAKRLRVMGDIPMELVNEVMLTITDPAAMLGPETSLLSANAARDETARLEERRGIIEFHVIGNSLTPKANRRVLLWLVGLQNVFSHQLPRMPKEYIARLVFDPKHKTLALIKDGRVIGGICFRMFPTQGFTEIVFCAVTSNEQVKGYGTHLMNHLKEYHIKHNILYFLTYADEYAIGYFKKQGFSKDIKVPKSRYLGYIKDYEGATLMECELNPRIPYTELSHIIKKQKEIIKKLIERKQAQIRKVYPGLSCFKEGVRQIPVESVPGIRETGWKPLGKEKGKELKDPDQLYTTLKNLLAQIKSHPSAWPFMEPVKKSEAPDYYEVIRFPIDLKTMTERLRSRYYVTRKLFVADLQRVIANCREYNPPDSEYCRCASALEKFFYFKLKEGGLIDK

Compound `C=C1C(=O)O[C@H](CCC)[C@H]1C(=O)O` showed an inhibition in the test on U-937 [1] of 44%. The Activity in test [2] is 45.9%; in [3], 54.5%; in test [4], 76.8%; in test [5], 58.6%.
On to `CCCCCc1nc2ccccc2c(O)c1C(=O)OCC`, for which the Activity was determined as 91.2% in test [2], 102% in [3], 100% in test [4] and 47.7% in test [5]. For the same compound, the result in the test on U-937 [6], in the test with U-937 [7] and in the test on U-937 [10] was Active. Moreover, the outcome with U-937 [8] and in the test on U-937 [9] was inactive.
As to `Cc1nc2ccccc2c(O)c1C(=O)O`, the Activity in test [2] was determined as 20.5%; in test [3], 97.4%; in test [4], 104%; in test [5], 11.4%. In addition, the outcome in the test on U-937 [6], in the test on U-937 [7] and in the test with U-937 [10] was Active. Besides, the outcome in the test with U-937 [8] and with U-937 [9] was inactive.
Take `CCCCCc1nc2ccccc2c(O)c1C(=O)O`: in the test with U-937 [1], the inhibition came to 30%. Moreover, the Activity in test [2] worked out at 19%; in test [3] it was 98%; in test [4], 103%; in test [5] it was 82%. Further, the result in the test on U-937 [6], in the test on U-937 [7] and with U-937 [10] was Active. Besides, the outcome with U-937 [8] and in the test on U-937 [9] was inactive.
Regarding `C=CC/C=C\C/C=C\CCCCCCCc1cccc(O)c1C(=O)O`, the inhibition in the test on U-937 [1] was found to be 15%. Also, the Activity in [2] came to 44%; in test [3], 113%; in [4] it was 52.1%; in test [5], 53.1%.
For the compound `CCCCCCCCCCc1nc2ccccc2c(O)c1C(=O)O`, the Activity in test [2] stood at 13.2%; in [3] it was 95.4%; in test [4], 91.5%; in test [5] it was 53.9%. In addition, the outcome with U-937 [6], with U-937 [7] and in the test with U-937 [10] was Active. Besides, the outcome with U-937 [8] and in the test on U-937 [9] was inactive.
Take `CCOC(=O)c1c(C)nc2ccccc2c1O`: the Activity in [2] worked out at 13.4%; in test [3], 97.4%; in test [4], 81.7%; in [5] it was 16.4%. The result in the test on U-937 [6] and with U-937 [10] was Active. The result in the test with U-937 [7], in the test with U-937 [8] and in the test with U-937 [9] was inactive.
As for `CCCCCCCCCCCCCCCc1nc2ccccc2c(O)c1C(=O)O`, the Activity amounted to 14.4% in test [2], 103% in [3], 62.7% in test [4] and 46.9% in test [5]. The outcome in the test on U-937 [6], in the test on U-937 [7] and in the test with U-937 [10] was Active. The outcome in the test on U-937 [8] and in the test on U-937 [9] was inactive.
For `CCCCCCCCCCCCCCCc1nc2ccccc2c(O)c1C(=O)OCC`, the Activity turned out to be 116% in test [2], 96.8% in test [3], 82.4% in test [4] and 39.8% in test [5]. Moreover, the result with U-937 [6], with U-937 [7], in the test with U-937 [8], with U-937 [9], with U-937 [11] and in the test with U-937 [12] was Active. The result in the test on U-937 [10] was Active.
As for `CCCCCCCCCCc1nc2ccccc2c(O)c1C(=O)OCC`, the Activity came to 93.4% in [2], 93.4% in test [3], 90.1% in test [4] and 39.1% in [5]. The outcome with U-937 [6], in the test with U-937 [8], in the test with U-937 [9], in the test with U-937 [11], in the test on U-937 [12] and in the test with U-937 [10] was Active. In the test with U-937 [7], the result was inactive.
